This note sets out measurements from PubChem BioAssay AID256 (DTP/NCI, 2004).

Values joined by “and” are separate entries in the source; they are usually repeats but may differ in a detail not shown here. Equal entries are not always repeated. Inconclusive results and toxic doses are left out.

This test deals with CD2F1 mice, L1210 leukemia ip, survival T/C. As to the kind of experiment: NCI In Vivo Anticancer Drug Screen. Data for tumor model L1210 Leukemia (intraperitoneal) in CD2F1 (CDF1) mice. As to conditions: higher = longer survival. In short, it runs like this: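 Activity against a transplanted murine tumor was judged by comparing the compound group with a vehicle group. The outcome in the treated animals was divided by that in the controls.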

Setting [1] is: endpoint: mean survival time, dose: 100.0 mg/kg/injection, schedule: Q04DX003 (ip), vehicle: saline.
[2] abbreviates: endpoint: mean survival time, dose: 25.0 mg/kg/injection, schedule: Q01DX009 (ip), vehicle: saline with Tween-80.
[3] abbreviates: endpoint: mean survival time, dose: 50.0 mg/kg/injection, schedule: Q01DX009 (ip), vehicle: saline with Tween-80.
[4] abbreviates: endpoint: mean survival time, dose: 100.0 mg/kg/injection, schedule: Q01DX009 (ip), vehicle: saline with Tween-80.
Setting [5] is: endpoint: mean survival time, dose: 100.0 mg/kg/injection, schedule: Q01DX001 (ip), vehicle: saline.
The mark [6] stands for this setting: endpoint: mean survival time, dose: 200.0 mg/kg/injection, schedule: Q01DX001 (ip), vehicle: saline.
Where [7] appears, read: endpoint: mean survival time, dose: 400.0 mg/kg/injection, schedule: Q01DX001 (ip), vehicle: saline.
Setting [8] is: endpoint: mean survival time, dose: 200.0 mg/kg/injection, schedule: Q01DX009 (ip), vehicle: saline with Tween-80.
Where [9] appears, read: endpoint: mean survival time, dose: 400.0 mg/kg/injection, schedule: Q01DX009 (ip), vehicle: saline with Tween-80.

For the molecule `CCC(CC)=NN(C)C`, the T/C reads like this: (endpoint: mean survival time, dose: 75.0 mg/kg/injection, schedule: Q01DX001 (ip), vehicle: saline) 100 % of control; (endpoint: mean survival time, dose: 150.0 mg/kg/injection, schedule: Q01DX001 (ip), vehicle: saline) 96 % of control; (endpoint: mean survival time, dose: 300.0 mg/kg/injection, schedule: Q01DX001 (ip), vehicle: saline) 96 % of control.
In the case of `O=C(O)CC(=O)O.[NH-]C1CCCCC1C1CCCCC1[NH-].[Pt+2]` (stereo not drawn), the T/C is, setting by setting: (endpoint: mean survival time, dose: 3.12 mg/kg/injection, schedule: Q04DX003 (ip), vehicle: distilled water + Tween-80) 106 % of control; (endpoint: mean survival time, dose: 6.25 mg/kg/injection, schedule: Q04DX003 (ip), vehicle: distilled water + Tween-80) 112 % of control; (endpoint: mean survival time, dose: 12.5 mg/kg/injection, schedule: Q04DX003 (ip), vehicle: distilled water + Tween-80) 119 % of control; (endpoint: mean survival time, dose: 50.0 mg/kg/injection, schedule: Q04DX003 (ip), vehicle: distilled water + Tween-80) 165 % of control; (endpoint: mean survival time, dose: 100.0 mg/kg/injection, schedule: Q04DX003 (ip), vehicle: distilled water + Tween-80) 201 % of control; (endpoint: mean survival time, dose: 200.0 mg/kg/injection, schedule: Q04DX003 (ip), vehicle: distilled water + Tween-80) 194 % of control.
For the molecule `[Cl][Hg][Cl]`, the T/C was 101 % of control (endpoint: median survival time, dose: 0.39 mg/kg/injection, schedule: Q01DX009 (ip), vehicle: saline); 97 % of control (endpoint: median survival time, dose: 0.78 mg/kg/injection, schedule: Q01DX009 (ip), vehicle: saline); 101 % of control (endpoint: median survival time, dose: 1.56 mg/kg/injection, schedule: Q01DX009 (ip), vehicle: saline); 92 % of control (endpoint: median survival time, dose: 3.12 mg/kg/injection, schedule: Q01DX009 (ip), vehicle: saline).
On to `CC(=O)SCCNCC(C)(C)S`, for which the T/C is, setting by setting: under setting [1], 98 % of control; (endpoint: mean survival time, dose: 200.0 mg/kg/injection, schedule: Q04DX003 (ip), vehicle: saline) 98 % of control; (endpoint: mean survival time, dose: 400.0 mg/kg/injection, schedule: Q04DX003 (ip), vehicle: saline) 95 % of control.
Consider `COC(=O)C(C)C(C)(O)C(C)(C)C` (stereo not drawn), for which the T/C by setting is: under setting [2], 100 % of control; (endpoint: mean survival time, dose: 25.0 mg/kg/injection, schedule: Q04DX003 (ip), vehicle: saline) 103 % of control; under setting [3], 101 % of control; (endpoint: mean survival time, dose: 50.0 mg/kg/injection, schedule: Q04DX003 (ip), vehicle: saline) 103 % of control; under setting [4], 102 % of control; under setting [1], 98 % of control.
As for `CC(C)(C)CC(C)(C)C1=CC(=O)C(C(C)(C)CC(C)(C)C)=CC1=O`, the T/C is, setting by setting: (endpoint: mean survival time, dose: 100.0 mg/kg/injection, schedule: Q01DX001 (ip), vehicle: saline with Tween-80) 91 % of control; (endpoint: mean survival time, dose: 200.0 mg/kg/injection, schedule: Q01DX001 (ip), vehicle: saline with Tween-80) 90 % of control; (endpoint: mean survival time, dose: 400.0 mg/kg/injection, schedule: Q01DX001 (ip), vehicle: saline with Tween-80) 86 % of control.
For `Cc1ccc(C(=O)Nc2cccc(-n3cnc4c(=O)[nH]c(N)nc43)c2)cc1S(=O)(=O)F`, the T/C is 90 % of control (endpoint: mean survival time, dose: 50.0 mg/kg/injection, schedule: Q04DX002 (ip), vehicle: saline with Tween-80); 101 % of control (endpoint: mean survival time, dose: 100.0 mg/kg/injection, schedule: Q04DX002 (ip), vehicle: saline with Tween-80); 86 % of control (endpoint: mean survival time, dose: 200.0 mg/kg/injection, schedule: Q04DX002 (ip), vehicle: saline with Tween-80).
As for `CSc1cc(C)c(O)c(CO)c1`, the T/C runs as follows: (endpoint: mean survival time, dose: 100.0 mg/kg/injection, schedule: Q04DX003 (ip), vehicle: other) 104 % of control; (endpoint: mean survival time, dose: 200.0 mg/kg/injection, schedule: Q04DX003 (ip), vehicle: other) 98 % of control; (endpoint: mean survival time, dose: 400.0 mg/kg/injection, schedule: Q04DX003 (ip), vehicle: other) 100 % of control.
As for `Nc1nc(=O)[nH]c(N)c1N`, the T/C is, setting by setting: (endpoint: mean survival time, dose: 100.0 mg/kg/injection, schedule: Q04DX002 (ip), vehicle: saline) 97 % of control; (endpoint: mean survival time, dose: 200.0 mg/kg/injection, schedule: Q04DX002 (ip), vehicle: saline) 117 % of control.
On to `O=C(CCl)NCCCCNC(=O)CCl`, for which the T/C runs as follows: under setting [5], 101 % of control; under setting [6], 98 % of control; under setting [7], 100 % of control.
As for `Nc1ccccc1N`, the T/C by setting is: under setting [2], 95 % of control; under setting [8], 93 % of control.
Consider `N#Cc1ccc(OCc2nc(N)nc(N)c2-c2ccc(Cl)c(Cl)c2)cc1`, for which the T/C under setting [3] is 90 % of control, the T/C under setting [4] is 102 % of control and the T/C under setting [8] is 110 % of control.
Consider `CC1=C(C)CC([P+](c2ccccc2)(c2ccccc2)c2ccccc2)CC1` (stereo not drawn), for which the T/C reads like this: (endpoint: mean survival time, dose: 6.25 mg/kg/injection, schedule: Q01DX001 (ip), vehicle: saline with Tween-80) 98 % of control; (endpoint: mean survival time, dose: 12.5 mg/kg/injection, schedule: Q01DX001 (ip), vehicle: saline with Tween-80) 90 % of control; (endpoint: mean survival time, dose: 25.0 mg/kg/injection, schedule: Q01DX001 (ip), vehicle: saline with Tween-80) 94 % of control.
As to `COc1ccc(OC)c(C(=O)CC(O)(C(F)(F)F)C(F)(F)F)c1`, the T/C was 97 % of control under setting [4], 101 % of control under setting [8] and 97 % of control under setting [9].
For `C=CC1(C)CC(=O)C2(O)C(C)(O1)C(OC(C)=O)C(O)C1C(C)(C)CCC(O)C12C` (stereo not drawn), the T/C is 98 % of control (endpoint: median survival time, dose: 4.0 mg/kg/injection, schedule: Q01DX005 (ip), vehicle: other); 101 % of control (endpoint: median survival time, dose: 8.0 mg/kg/injection, schedule: Q01DX005 (ip), vehicle: other); 93 % of control (endpoint: median survival time, dose: 16.0 mg/kg/injection, schedule: Q01DX005 (ip), vehicle: other).
Turning to `COC(=O)C12OCC34C(CC5C(C)=CC(=O)C(O)C5(C)C3C(O)C1O)OC(=O)C(OC(=O)CC(C)C)C24` (stereo not drawn), the T/C was 101 % of control (endpoint: mean survival time, dose: 0.12 mg/kg/injection, schedule: Q01DX009 (ip), vehicle: saline + alcohol); 102 % of control (endpoint: mean survival time, dose: 0.13 mg/kg/injection, schedule: Q01DX009 (ip), vehicle: saline + alcohol); 100 % of control and 102 % of control (endpoint: mean survival time, dose: 0.25 mg/kg/injection, schedule: Q01DX009 (ip), vehicle: saline + alcohol); 113 % of control and 95 % of control (endpoint: mean survival time, dose: 0.5 mg/kg/injection, schedule: Q01DX009 (ip), vehicle: saline + alcohol); 101 % of control and 105 % of control (endpoint: mean survival time, dose: 1.0 mg/kg/injection, schedule: Q01DX009 (ip), vehicle: saline + alcohol); 97 % of control and 104 % of control (endpoint: mean survival time, dose: 2.0 mg/kg/injection, schedule: Q01DX009 (ip), vehicle: saline + alcohol). For the same molecule, the T/C (endpoint: mean survival time, dose: 4.0 mg/kg/injection, schedule: Q01DX009 (ip), vehicle: saline + alcohol) was 104 % of control and 109 % of control.
As to `COC(=O)C(C)CC(C)(C=O)OC` (stereo not drawn), the T/C by setting is: under setting [4], 102 % of control; under setting [8], 96 % of control; under setting [9], 96 % of control.
For `CS(=O)(=O)OCCN(CCOS(C)(=O)=O)c1cccc(C(F)(F)F)c1`, the T/C was 113 % of control (endpoint: mean survival time, dose: 6.25 mg/kg/injection, schedule: Q01DX015 (ip), vehicle: saline); 119 % of control (endpoint: mean survival time, dose: 12.5 mg/kg/injection, schedule: Q01DX015 (ip), vehicle: saline); 107 % of control (endpoint: mean survival time, dose: 25.0 mg/kg/injection, schedule: Q01DX015 (ip), vehicle: saline); 98 % of control (endpoint: mean survival time, dose: 50.0 mg/kg/injection, schedule: Q01DX015 (ip), vehicle: saline).
As for `O=C1NC(=O)c2ccccc21`, the T/C was 102 % of control (endpoint: mean survival time, dose: 100.0 mg/kg/injection, schedule: Q01DX009 (ip), vehicle: Klucel (hydroxypropylcellulose) (HPC)); 106 % of control (endpoint: mean survival time, dose: 200.0 mg/kg/injection, schedule: Q01DX009 (ip), vehicle: Klucel (hydroxypropylcellulose) (HPC)); 101 % of control (endpoint: mean survival time, dose: 400.0 mg/kg/injection, schedule: Q01DX009 (ip), vehicle: Klucel (hydroxypropylcellulose) (HPC)).
`Cc1cc(=O)[nH]c(N/N=C/c2ccc(N(C)C)cc2)n1`: the T/C reads like this: under setting [4], 91 % of control; (endpoint: mean survival time, dose: 100.0 mg/kg/injection, schedule: Q04DX003 (ip), vehicle: saline with Tween-80) 104 % of control; under setting [8], 88 % of control; (endpoint: mean survival time, dose: 200.0 mg/kg/injection, schedule: Q04DX003 (ip), vehicle: saline with Tween-80) 95 % of control; under setting [9], 86 % of control; (endpoint: mean survival time, dose: 400.0 mg/kg/injection, schedule: Q04DX003 (ip), vehicle: saline with Tween-80) 92 % of control.
As for `CC1=CC(=O)CC(C)C2CC(C(C)C)CC12` (stereo not drawn), the T/C by setting is: under setting [5], 101 % of control; under setting [6], 100 % of control; under setting [7], 105 % of control.
In the case of `C1OCC2[CH2][Hg][S][Hg][CH2]C1O2`, the T/C reads like this: (endpoint: mean survival time, dose: 4.0 mg/kg/injection, schedule: Q01DX015 (ip), vehicle: saline) 109 % of control; (endpoint: mean survival time, dose: 8.0 mg/kg/injection, schedule: Q01DX015 (ip), vehicle: saline) 107 % of control.
